Like-named read-outs stand apart in the source and are kept apart here.

In general, melting point refers to the temperature, or range, at which the solid turns liquid.

For data set [1], the system named is C-33A cells. Set-up: method as in Kong et al., 2021. As to conditions: MTT, ref Kong et al., 2021, read-out: Half inhibitory concentration (IC50), C-33A; cited from earlier work.
For data set [2], the system named is CaSki cells. Set-up: method as in Kong et al., 2021. As to conditions: MTT, ref Kong et al., 2021, read-out: Half inhibitory concentration (IC50), CaSki; cited from earlier work.
Data set [3] has as its system SiHa cells. Set-up: method as in Kong et al., 2021. As to conditions: MTT, ref Kong et al., 2021, read-out: Half inhibitory concentration (IC50), SiHa; cited from earlier work.
Data set [4] concerns HeLa cells. Set-up: method as in Kong et al., 2021. As to conditions: MTT, ref Kong et al., 2021, read-out: Half inhibitory concentration (IC50), HeLa; cited from earlier work.
The subject of data set [5] is HepG2 cells. Set-up: method as in Kong et al., 2021. As to conditions: MTT, ref Kong et al., 2021, read-out: Half inhibitory concentration (IC50), HepG2; cited from earlier work.
Data set [6] has as its system 7402 cells. Also noted: method as in Kong et al., 2021. As to conditions: MTT, ref Kong et al., 2021, read-out: Half inhibitory concentration (IC50), 7402; cited from earlier work.
For data set [7], the system named is LO2 cells. Also noted: method as in Kong et al., 2021. As to conditions: normal liver LO2 cells, MTT; ref Kong et al., 2021; read-out: Half inhibitory concentration (IC50), LO2; cited from earlier work.
Data set [8] concerns C-33A cells. Kind of data set: MTT cell viability assay, C-33A. It counts as cell-based. As to conditions: Homo sapiens, 48 h, read-out: Half inhibitory concentration (IC50), C-33A. On the procedure:
(§1) HepG2 (human epidermoid hepatocellular carcinoma cell), 7402 (human epidermoid hepatocellular carcinoma cell), C-33A (human epidermoid cervical carcinoma cell), and HeLa (human epidermoid cervical adenocarcinoma cell) were incubated in Dulbecco’s modified Eagle’s medium (DMEM), which was purchased from Gibco (Grand Island, NY, United States). SiHa cells (human epidermoid cervical squamous cell carcinoma) were incubated in minimum essential medium (MEM, also from Gibco). CaSki (human epidermoid cervical carcinoma cell) and LO2 (human normal liver cell) were incubated in minimum essential medium (MEM, also from Gibco). All cells were maintained at 37°C in a humidified incubator with 5% carbon dioxide, and the media contained 10% fetal bovine serum (FBS, Corning, United States) and 1% penicillin–streptomycin antibiotic solution (Corning, United States). SiHa and CaSki were bought from the China Center for Type Culture Collection (CCTCC). The other five types of cancer cell lines were obtained from the Experiment Center of Medicine, Sinopharm Dongfeng Hospital, Hubei University of Medicine. The compounds were dissolved in dimethyl sulfoxide (DMSO, MP Biomedicals, United States), and cisplatin was purchased from Aladdin, Shanghai, China. The control (0 μM) group was treated with DMSO only in the same conditions, and the DMSO content in the medium was less than 0.1%.
(§2) Cell viability was measured by a 3-(4,5-dimethylthiazol-2-yl)-2,5-diphenyltetrazolium bromide (MTT, MultiSciences, China) assay. The specific experimental steps referred to our previous research ([Zhu et al., 2020]). For each cell line, cells were digested and seeded in 96-well plates at a density of 1 × 10^3 cells/well. […] Then, the formed formazan crystals were dissolved in DMSO, and the plates were estimated in a […] microplate reader (BioTek Inc., Bio-Tek MQX200) at a wavelength of 490 nm. Optical density (OD) values were obtained, and the inhibition rate and IC50 of each compound on different cells were calculated by GraphPad Prism 8.0.1 software. […]
In general terms: Formazan colour is commonly taken as a measure of viable cells.

The subject of data set [9] is CaSki cells. Briefly: MTT cell viability assay, CaSki. It counts as cell-based. As to conditions: Homo sapiens, Ca-Ski, 48 h, read-out: Half inhibitory concentration (IC50), CaSki. As to the method: as §1, §2
Data set [10] has as its system SiHa cells. Briefly: MTT cell viability assay, SiHa. It is filed as cell-based. As to conditions: Homo sapiens, 48 h, read-out: Half inhibitory concentration (IC50), SiHa. On the procedure: as §1, §2
Data set [11] concerns HeLa cells. Briefly: MTT cell viability assay, HeLa. It is filed as cell-based. As to conditions: Homo sapiens, 48 h, read-out: Half inhibitory concentration (IC50), HeLa. As to the method:
as §1, §2

Data set [12] has as its system HepG2 cells. Briefly: MTT cell viability assay, HepG2. It counts as cell-based. As to conditions: Homo sapiens, 48 h, read-out: Half inhibitory concentration (IC50), HepG2. As to the method:
as §1, §2

The test system of data set [13] is 7402 cells. Kind of data set: MTT cell viability assay, 7402. It counts as cell-based. As to conditions: Homo sapiens, 48 h, read-out: Half inhibitory concentration (IC50), 7402. As to the method: as §1, §2
In data set [14] the test system is LO2 cells. Kind of data set: MTT cell viability assay, normal liver LO2. It is filed as cell-based, human. As to conditions: Homo sapiens, L02, normal liver LO2 cells, 48 h, read-out: Half inhibitory concentration (IC50), LO2. As to the method: as §1
Cell viability was measured by a 3-(4,5-dimethylthiazol-2-yl)-2,5-diphenyltetrazolium bromide (MTT, MultiSciences, China) assay. The specific experimental steps referred to our previous research ([Zhu et al., 2020]). For each cell line, cells were digested and seeded in 96-well plates at a density of 1 × 10^3 cells/well. After 24 h of culture, the cells were adherent and treated with varying concentrations of RPDPRH (0, 3.125, 6.25, 12.5, 25, 50, and 100 μM). Cells without treatment were used as a solvent control group (0 μM, DMSO) and those with cisplatin treatment served as a positive control. After 48 h of treatment, MTT solution was added and incubated for 4 h. Then, the formed formazan crystals were dissolved in DMSO, and the plates were estimated in a […] microplate reader (BioTek Inc., Bio-Tek MQX200) at a wavelength of 490 nm. Optical density (OD) values were obtained, and the inhibition rate and IC50 of each compound on different cells were calculated by GraphPad Prism 8.0.1 software. Cell inhibition rate (%) = 1− [(OD experimental-OD blank)/(OD control-OD blank)] × 100%.

On to `N.N.[Cl][Pt][Cl]` [Cisplatin, cisplatin, reference compound], for which the IC50 in the data set with C-33A cells [1] is 48.2 µM; in the data set with CaSki cells [2] it was 17.5 µM; with SiHa cells [3], 37.1 µM; in the data set with HeLa cells [4], 47.5 µM; in the data set with HepG2 cells [5] it was 19.3 µM; with 7402 cells [6], 48.5 µM. Besides, the IC50 in the data set with LO2 cells [7] was 17.3 µM.
Take `O=C1/C(=C/c2ccccc2)CC(/C=C/c2ccccc2)(C(=O)NC2CCCCC2)N1c1ccc(Cl)cc1` (stereo not drawn) [RPDPRI, (2E, 4E)-4-benzylidene-1-(4-chlorophenyl)-N-cyclohexyl-5-oxo-2-styrylpyrrolidine-2-carboxamide]: the melting point is 209 to 210 °C. For the same compound, the IC50 in the data set with C-33A cells [8] was greater than 100 µM. Besides, the IC50 in the data set on CaSki cells [9] is greater than 100 µM. Moreover, the IC50 with SiHa cells [10] was greater than 100 µM. Besides, the IC50 in the data set with HeLa cells [11] was greater than 100 µM. In the data set on HepG2 cells [12], the IC50 is greater than 100 µM. Besides, the IC50 in the data set with 7402 cells [13] is greater than 100 µM. Besides, in the data set on LO2 cells [14], the IC50 is greater than 100 µM.
Regarding `O=C1/C(=C/c2ccc(Cl)cc2)CC(/C=C/c2ccccc2)(C(=O)NC2CCCCC2)N1c1ccc(Cl)cc1` (stereo not drawn) [RPDPRK, (2E, 4E)-4-(4-chlorobenzylidene)-1-(4-chlorophenyl)-N-cyclohexyl-5-oxo-2-styryl pyrrolidine-2-carboxamide], the IC50 in the data set with C-33A cells [8] was 89.5 µM; in the data set with CaSki cells [9] it was 46.4 µM; in the data set on SiHa cells [10], 67.3 µM; in the data set with HeLa cells [11], 44.7 µM; with HepG2 cells [12] it was greater than 100 µM; with 7402 cells [13], greater than 100 µM. Further, the IC50 in the data set with LO2 cells [14] was greater than 100 µM.
Compound `O=C1/C(=C/c2ccccc2)CC(/C=C/c2ccc(Cl)cc2)(C(=O)NC2CCCCC2)N1c1ccc(F)cc1` (stereo not drawn) [RPDPRO, (2E, 4E)-2-(4-chlorostyryl)-4-benzylidene-N-cyclohexyl-1-(4-fluorophenyl)-5-oxopyrrolidine-2-carboxamide] displayed a melting point of 142 to 144 °C. In the data set on C-33A cells [1], the IC50 was 5.56 µM. In addition, the IC50 in the data set with CaSki cells [2] is 9.15 µM. Further, the IC50 with SiHa cells [3] was 12.5 µM. The IC50 with HeLa cells [4] was 21.4 µM. Moreover, the IC50 in the data set on HepG2 cells [5] was 14.5 µM. For the same compound, the IC50 in the data set on 7402 cells [6] is 31.2 µM. The IC50 in the data set with LO2 cells [7] was 86.8 µM.

Source of the values: article PMC9157788, “Design, Synthesis, and Apoptosis-Promoting Effect Evaluation of Rhopaladins’ Analog 4-Arylidene-5-Oxopyrrolidine Derivatives” (Frontiers in Chemistry, 2022).
